SMILES strings stand for the structures. Peptide text beside a SMILES is read from it. * marks the point of attachment. 5FAM = O=C1OC2(c3ccc(O)cc3Oc3cc(O)ccc32)c2ccc(C(=O)*)cc21

Series [1] concerns protein kinase C (PKC). Kind of series: Intracellular Fl-sPKC phosphorylation by PKC in single Xenopus laevis oocytes (PERT CE sampling, MEKC). The series is classed as cell-based. As for the experimental part:
Oocytes 46′ were surgically obtained from pigmented or albino Xenopus laevis frogs and were cultured as described previously. Oocytes 46′ were microinjected by means of an injector mounted on a low power dissecting microscope (not shown) with 50 nl of reporter substrate peptide (0.5-200 μM) in buffer B, and then incubated for 30 min to permit diffusion of the peptide through the oocyte 46′. For measurements, oocytes 46′ were placed in buffer C (96 mM NaCl, 2 mM KCl, 1.8 mM CaCl2, 1 mM MgCl2, 5 mM Hepes, pH 7.6). When LPA (1-oleoyl-2-hydroxy-sn-glycero-3-phosphate, Avanti Polar Lipids, Alabaster, Ala.) was added to the oocytes 46′, fatty acid-free bovine serum albumen (5%) was used as a carrier as described previously.
All samples from the oocytes 46′ were obtained and electrophoresed by a method referred to as piezoelectric sampling/rapid translation/capillary electrophoresis (PERT CE). The apparatus used for PERT CE is illustrated in FIGS. 8A-B. FIGS. 8A and 8B are diagrammatic depictions of the components of the apparatus used to make measurements of intracellular enzyme activity from single Xenopus laevis oocytes 46′. […] The holder is part of a complete apparatus for automatically sampling oocyte cytoplasm and rapidly subjecting this sample to electrophoresis before any substantial change in the substrate molecules can occur. This is achieved by providing a sharpened electrophoresis capillary 22 attached to a high speed translation system to plunge the capillary into the cell to capture a plug of cytoplasm. Then the capillary is automatically withdrawn from the oocyte and rapidly moved to make electrical contact with a reservoir 134 of electrophoresis buffer so that electrophoresis of the substrate molecules within the “plug” commences before any additional chemical reactions occur.
To obtain cytoplasm, the capillary 22 was driven 60 μm into the oocyte 46′ by the piezoelectric element. […] The capillary 22 was then automatically withdrawn from the cytoplasm. […] Electrophoresis was initiated immediately. […]

Series [2] deals with protein kinase C (PKC). Kind of series: Time course of intracellular Fl-sPKC phosphorylation by PKC in single NIH/3T3 cells (laser lysis, capillary electrophoresis). The series is classed as cell-based, murine. The note with it: 100 nM PMA, 5 minute time point, room temperature, FIG. 12.
Series [3] relates to protein kinase C (PKC). Kind of series: Net intracellular PKC activity in single RBL cells: microinjected Fl-sPKC reporter, laser lysis, capillary electrophoresis, laser-induced fluorescence. It counts as cell-based, rat. To be noted: RBL cell. As for the experimental part:
FIGS. 2A-C and 3A-C are two sets of graphs of three stacked electrophoretograms of reporter substrate molecule separations all made under identical electrophoretic conditions on the same day. In the first embodiment, illustrated by FIGS. 2A-C and FIGS. 3A-C, rat basophilic leukemia (RBL) cells, from the tumor mast cell line RBL-2H3, were used. These cells were grown at 37° C. and 5% CO2 in Dulbecco's modified eagle medium (DMEM) supplemented with 10% fetal bovine serum, and L-glutamine ([…]). Penicillin (100 units/ml) and streptomycin (100 μg/ml) were added to the media to inhibit bacterial growth. […] The cells 46 were plated at concentrations determined empirically to produce approximately one cell per 100× field of view on the day of the measurement. […]
In the first embodiment, the microscopy system of FIG. 9 used for cell lysis was similar to that described previously in the incorporated application entitled “Fast Controllable Laser Lysis of Cells for Analysis”. The frequency-doubled Q-switched Nd:YAG laser 18 (Minilite II, Continuum, Santa Clara, Calif.; Minilase II-20, New Wave Research, Sunnyvale, Calif.) was used to generate a single pulse (1-25 μJ, 5-ns pulse width, 532 nm) directed into a fluorescence microscope 12 (Axiovert 135, Zeiss, Thornwood, N.Y.). […]

Series [4] has as its system RBL cell. Kind of series: Intracellular side reactions (degradation/modification) of the Fl-sPKC reporter in a microinjected RBL cell. The series is classed as cell-based, rat. The note with it: 200 μM Pefabloc present, with or without PMA, FIGS. 2B and 2C. As for the experimental part:
In the measurements illustrated by FIG. 2A-C, prior to mounting on the microscope stage for microinjection and analysis at room temperature (20°-23° C.), each cell chamber 199 was treated by addition of 10 μl of 10 mM Pefabloc (Boehringer-Mannheim, Indianapolis, Ind.) in buffer A with gentle manually pipetted mixing using a Pipetman® (Rainin, Woburn, Mass.).
This yielded a final Pefabloc concentration of 200 μM. Pefabloc is a soluble, physiologically tolerated, inhibitor of serine proteases, a subset of intracellular enzymes that tend to degrade peptides. Pefabloc was included to minimize intracellular degradation of Fl-sPKC. […]
In the measurements illustrated by FIGS. 2A-C, Fl-sPKC was diluted in buffer B, a physiologically compatible intracellular buffer composed of 10 mM Hepes and 140 mM KCl, at pH 7.4. […] The cells 46 that had been successfully microinjected were identified by visual observation of internal Calcium Orange epi-fluorescence through a set of TRITC filters (Chroma Technology Corp., Brattleboro, Vt.) (not shown, but included in the microscope 12) to minimize photodestruction of the fluorescein moiety on Fl-sPKC. […]
Clearly activation of an intracellular kinase by a potent pharmacologic activator can be measured by this approach. Furthermore, both electrophoretograms in FIGS. 2B and 2C show the presence of peaks that cannot be readily identified. […]

In the case of `CCCCCCCCCCCCCC(=O)O[C@@H]1[C@@H](C)[C@@]2(O)[C@@H](C=C(CO)C[C@]3(O)C(=O)C(C)=C[C@@H]23)[C@@H]2C(C)(C)[C@]12OC(C)=O` [PMA, phorbol myristic acid], the “collected fluorescence corresponding to P-Fl-sPKC” value in series [1] (Xenopus oocyte, 10 μM PMA for 10 minutes, ~10 μM reporter substrate, FIG. 4D) is given as “essentially all collected fluorescence”. In addition, the “degree of reporter substrate phosphorylation” value in series [1] (Xenopus oocyte, 10 μM PMA for three minutes, FIG. 5) is listed as “intermediate degree of reporter substrate phosphorylation”. In addition, the “average rate of Fl-sPKC phosphorylation within oocytes” value in series [1] (Xenopus oocytes, 10 μM activator, intermediate time points, FIGS. 6A/6B) amounted to 25 ± 15 nM/s. Moreover, the “phosphorylation level of Fl-sPKC” value in series [2] is approximately 50%. In addition, in series [3] (100 nM PMA, 5 minutes, FIG. 2C), the “Fl-sPKC peak versus P-Fl-sPKC peak (net PKC activity)” value is “nearly equal magnitude”. In series [3] (1 μM PMA for 10 minutes before microinjection of Fl-sPKC and Fl-sPKA, FIG. 11C), the “PKC activation (peaks matching P-Fl-sPKC)” value is listed as “small, but measurable amount of PKC activation”.

Consider `CC(C)C[C@H](NC(=O)[C@H](CO)NC(=O)CNC(=O)[C@H](CCCCN)NC(=O)[C@H](CCCNC(=N)N)NC(=O)[C@H](C)NC(=O)[C@H](Cc1ccccc1)NC(=O)[C@H](CCCNC(=N)N)NC(=O)c1ccc2c(c1)C(=O)OC21c2ccc(O)cc2Oc2cc(O)ccc21)C(=O)N[C@@H](CCCNC(=N)N)C(=O)N[C@@H](CCC(N)=O)C(=O)N[C@@H](CCCCN)C(=O)N[C@@H](CC(N)=O)C(=O)N[C@H](C(=O)O)C(C)C` [Fl-sPKC, Fl- Arg-Phe-Ala-Arg-Lys-Gly-Ser-Leu-Arg-Gln-Lys-Asn-Val] (5FAM-RFARKGSLRQKNV-OH), for which the “side products as share of collected fluorescence” value in series [4] is “about 50%”.

The values above are taken from patent publication US6740497B2, “Method and apparatus for detecting cancerous cells using molecules that change electrophoretic mobility” (The Regents of the University of California, priority 1998, dated 2004).
